Drawing on US20090057617A1, “Corrosion inhibitors containing anionic surfactants” (priority 2007, published 2009), this text covers ø protection % for one compound.

This test is described as follows: Shell wheel test (corrosion inhibition). The following applies: 50 ppm of a 24% solution of the inhibitor; salt water/petroleum mixture 9:1, 5% NaCl, pH 3.5; 40 rpm, 70° C., 24 hours; from decrease in coupon mass, based on a blank value. As for the experimental part: The compounds according to the invention were tested as corrosion inhibitors in the Shell wheel test. Coupons of C steel (DIN 1.1203 with 15 cm^2 surface area) were immersed in a salt water/petroleum mixture (9:1,5% strength NaCl solution adjusted to pH 3.5 with acetic acid) and exposed to this medium at a speed of 40 rpm at 70° C. for 24 hours. The inhibitor dose was 50 ppm of a 24% solution of the inhibitor. The protection values were calculated from the decrease in the mass of the coupons, based on a blank value.

For the compound `CCCCCCCC/C=C\CCCCCCCC(=O)NC(CCSC)C(=O)[O-].[K+]` (racemic) [example 2, N-Oleoyl-DL-methionine potassium Salt], the ø protection % turned out to be 69%.
